≈ marks a conversion by molar mass, not a printed value. Calls of active or inactive are those of the source. No cut-off for these calls is given here.

Eight compounds from ChEMBL document CHEMBL2380271, “Synthesis and biological evaluation of a class of quinolone triazoles as potential antimicrobial agents and their interactions with calf thymus DNA” (2013) can be followed below.

For assay [1], the system named is DNA. The experiment in a line: Binding affinity to calf thymus DNA-NR complex assessed as increase in fluorescence intensity at 726 nm wavelength. Particulars: Bos taurus. Type of assay: nucleic-acid assay.
Assay [2] relates to DNA. The assay is described as follows: Binding affinity to calf thymus DNA-NR complex assessed as decrease in fluorescence intensity at 640 nm wavelength. The settings on record: Bos taurus. Type of assay: nucleic-acid assay.
Assay [3] relates to DNA. The assay is described as follows: Competitive binding affinity to calf thymus DNA by UV-vis spectroscopic analysis in presence of neutral red. It counts as nucleic-acid assay. Particulars: Bos taurus.
The subject of assay [4] is DNA. The assay is described as follows: Binding affinity to calf thymus DNA at 0.5 to 3x10'-5 mol/L by fluorescence quenching assay. Type of assay: nucleic-acid assay. The settings on record: Bos taurus.
Assay [5] has as its system DNA. The assay is described as follows: Binding affinity to calf thymus DNA by fluorescence quenching assay in presence of potassium iodide. It counts as nucleic-acid assay. Particulars: Bos taurus.
In assay [6] the test system is DNA. The experiment in a line: Binding affinity to calf thymus DNA assessed as blue shift by UV-vis spectroscopic analysis. It counts as nucleic-acid assay. Particulars: Bos taurus.
The test system of the next assay is Salmonella typhi. The experiment in a line: Antibacterial activity against Eberthella typhosa by NCCLS method. Type of assay: functional, Salmonella enterica subsp. enterica serovar Typhi. Particulars: Salmonella enterica.
Another assay has as its system Pseudomonas aeruginosa. The experiment in a line: Antibacterial activity against Pseudomonas aeruginosa by NCCLS method. It counts as functional.
The next assay concerns Escherichia coli. The experiment in a line: Antibacterial activity against Escherichia coli DH52 by NCCLS method. It counts as functional.
The next assay deals with Shigella dysenteriae. The experiment in a line: Antibacterial activity against Shigella dysenteriae by NCCLS method. Type of assay: functional.
The test system of assay [7] is Staphylococcus aureus. The assay is described as follows: Antibacterial activity against Staphylococcus aureus ATCC 25923 by NCCLS method. Type of assay: functional.
Assay [8] relates to Staphylococcus aureus. The assay is described as follows: Antibacterial activity against methicillin-resistant Staphylococcus aureus N315 by NCCLS method. It counts as functional.
For another assay, the system named is Micrococcus luteus. The assay is described as follows: Antibacterial activity against Micrococcus luteus ATCC 4698 by NCCLS method. It counts as functional.
In a further assay the test system is Candida albicans. The assay is described as follows: Antifungal activity against Candida albicans by NCCLS method. It counts as functional.
In another assay the test system is Saccharomyces cerevisiae. The experiment in a line: Antifungal activity against Saccharomyces cerevisiae by NCCLS method. It counts as functional.
Assay [9] has as its system Aspergillus flavus. The assay is described as follows: Antifungal activity against Aspergillus flavus by NCCLS method. It counts as functional.
For the next assay, the system named is Cyberlindnera jadinii. The experiment in a line: Antifungal activity against Candida utilis by NCCLS method. Type of assay: functional. Particulars: Williopsis jadinii.
Assay [10] has as its system Staphylococcus aureus. The assay is described as follows: Ratio of norfloxacin MIC to compound MIC for methicillin-resistant Staphylococcus aureus N315. It counts as functional.
The subject of assay [11] is Staphylococcus aureus. The assay is described as follows: Ratio of chloromycin MIC to compound MIC for methicillin-resistant Staphylococcus aureus N315. Type of assay: functional.
Assay [12] concerns Aspergillus flavus. The assay is described as follows: Ratio of Fluconazole MIC to compound MIC for Aspergillus flavus. Type of assay: functional.

Take `Cc1ccc2c(c1)c(=O)c(C(=O)O)cn2CC(O)Cn1cncn1` (stereo unspecified): the result in the assay with DNA [1], in the assay on DNA [2], in the assay with DNA [3] and in the assay with DNA [4] was Active. Besides, the KSV in the assay on DNA [5] was 6.53 L/mol. Further, the K with DNA [6] was determined as 1.43 ×10³ L/mol. Besides, the MIC in the assay with Salmonella typhi was determined as 8 µg/mL (≈ 24.4 µM); with Pseudomonas aeruginosa, 16 µg/mL (≈ 48.7 µM); in the assay on Escherichia coli, 32 µg/mL (≈ 97.5 µM); in the assay on Shigella dysenteriae, 32 µg/mL (≈ 97.5 µM); against Staphylococcus aureus [7] it was 32 µg/mL (≈ 97.5 µM); with Staphylococcus aureus [8], 8 µg/mL (≈ 24.4 µM). In addition, the MIC with Micrococcus luteus is 16 µg/mL (≈ 48.7 µM); in the assay on Candida albicans, 2 µg/mL (≈ 6.09 µM); against Saccharomyces cerevisiae it was 4 µg/mL (≈ 12.2 µM); against Aspergillus flavus [9], 0.5 µg/mL (≈ 1.52 µM); against Cyberlindnera jadinii, more than 512 µg/mL.

Consider `O=C(O)c1cn(CC(O)Cn2cncn2)c2ccc(F)cc2c1=O` (stereo unspecified), for which the Ratio with Staphylococcus aureus [10] came to 8; in the assay on Staphylococcus aureus [11] it was 16. Further, the MIC with Salmonella typhi was found to be 1 µg/mL (≈ 3.01 µM); with Pseudomonas aeruginosa, 8 µg/mL (≈ 24.1 µM); with Escherichia coli it was 32 µg/mL (≈ 96.3 µM); with Shigella dysenteriae it was 0.5 µg/mL (≈ 1.5 µM); against Staphylococcus aureus [7], 128 µg/mL (≈ 385 µM); against Staphylococcus aureus [8], 1 µg/mL (≈ 3.01 µM). Also, the MIC against Micrococcus luteus was 32 µg/mL (≈ 96.3 µM); in the assay on Candida albicans, 64 µg/mL (≈ 193 µM); in the assay with Saccharomyces cerevisiae, 512 µg/mL (≈ 1540 µM); in the assay with Aspergillus flavus [9], 512 µg/mL (≈ 1540 µM); with Cyberlindnera jadinii, more than 512 µg/mL.

For the compound `O=C(O)c1cn(CC(O)Cn2cncn2)c2cc(C(F)(F)F)ccc2c1=O` (stereo unspecified), the Ratio with Staphylococcus aureus [10] stood at 8; in the assay with Staphylococcus aureus [11] it was 16. For the same compound, the MIC in the assay with Salmonella typhi stood at 4 µg/mL (≈ 10.5 µM); against Pseudomonas aeruginosa, 8 µg/mL (≈ 20.9 µM); in the assay on Escherichia coli, 8 µg/mL (≈ 20.9 µM); against Shigella dysenteriae, 1 µg/mL (≈ 2.62 µM); with Staphylococcus aureus [7], 1 µg/mL (≈ 2.62 µM); against Staphylococcus aureus [8], 1 µg/mL (≈ 2.62 µM). The MIC in the assay with Micrococcus luteus was 2 µg/mL (≈ 5.23 µM); against Candida albicans it was 1 µg/mL (≈ 2.62 µM); in the assay with Saccharomyces cerevisiae, 256 µg/mL (≈ 670 µM); in the assay on Aspergillus flavus [9] it was 512 µg/mL (≈ 1340 µM); against Cyberlindnera jadinii, more than 512 µg/mL.

On to `CCOC(=O)c1cn(CC(O)Cn2cncn2)c2c(Cl)cc(Cl)cc2c1=O` (racemic), for which the Ratio is reported as 8 in the assay with Staphylococcus aureus [10] and 16 in the assay on Staphylococcus aureus [11]. For the same compound, the MIC was determined as 4 µg/mL (≈ 9.73 µM) in the assay with Salmonella typhi; 4 µg/mL (≈ 9.73 µM) with Pseudomonas aeruginosa; 4 µg/mL (≈ 9.73 µM) with Escherichia coli; 128 µg/mL (≈ 311 µM) in the assay with Shigella dysenteriae; 1 µg/mL (≈ 2.43 µM) in the assay with Staphylococcus aureus [7]; 1 µg/mL (≈ 2.43 µM) against Staphylococcus aureus [8]. In addition, the MIC was 8 µg/mL (≈ 19.5 µM) against Micrococcus luteus; 512 µg/mL (≈ 1240 µM) against Candida albicans; 32 µg/mL (≈ 77.8 µM) against Saccharomyces cerevisiae; 0.5 µg/mL (≈ 1.22 µM) against Aspergillus flavus [9]; more than 512 µg/mL against Cyberlindnera jadinii.

As to `CCOC(=O)c1cn(CC2CO2)c2c(F)cc(F)cc2c1=O` (racemic), in the assay on Aspergillus flavus [12], the Ratio was found to be 256. The MIC in the assay on Salmonella typhi was 2 µg/mL (≈ 6.47 µM); against Pseudomonas aeruginosa it was 64 µg/mL (≈ 207 µM); against Escherichia coli it was 128 µg/mL (≈ 414 µM); in the assay on Shigella dysenteriae, more than 512 µg/mL; with Staphylococcus aureus [7], 16 µg/mL (≈ 51.7 µM); against Staphylococcus aureus [8] it was 8 µg/mL (≈ 25.9 µM). Besides, the minimum inhibitory concentration (MIC) in the assay with Micrococcus luteus was 2 µg/mL (≈ 6.47 µM); with Candida albicans it was 4 µg/mL (≈ 12.9 µM); against Saccharomyces cerevisiae it was 64 µg/mL (≈ 207 µM); in the assay with Aspergillus flavus [9], 1 µg/mL (≈ 3.23 µM); with Cyberlindnera jadinii, more than 512 µg/mL.

Consider `CCOC(=O)c1cn(CC2CO2)c2ccc(F)cc2c1=O` (racemic), for which, in the assay on Aspergillus flavus [12], the Ratio was determined as 256. Moreover, the MIC with Salmonella typhi stood at 8 µg/mL (≈ 27.5 µM); against Pseudomonas aeruginosa, 128 µg/mL (≈ 439 µM); in the assay with Escherichia coli, 64 µg/mL (≈ 220 µM); in the assay on Shigella dysenteriae, 64 µg/mL (≈ 220 µM); against Staphylococcus aureus [7] it was 32 µg/mL (≈ 110 µM); against Staphylococcus aureus [8], 4 µg/mL (≈ 13.7 µM). The MIC in the assay on Micrococcus luteus is 512 µg/mL (≈ 1760 µM); in the assay on Candida albicans, 16 µg/mL (≈ 54.9 µM); in the assay on Saccharomyces cerevisiae, 2 µg/mL (≈ 6.87 µM); against Aspergillus flavus [9], 1 µg/mL (≈ 3.43 µM); in the assay with Cyberlindnera jadinii, 256 µg/mL (≈ 879 µM).

Turning to `CCOC(=O)c1cn(CC2CO2)c2cc(C(F)(F)F)ccc2c1=O` (racemic), the Ratio amounted to 16 with Staphylococcus aureus [10], 32 in the assay on Staphylococcus aureus [11] and 256 with Aspergillus flavus [12]. The MIC amounted to 2 µg/mL (≈ 5.86 µM) with Salmonella typhi; 64 µg/mL (≈ 188 µM) against Pseudomonas aeruginosa; 64 µg/mL (≈ 188 µM) in the assay with Escherichia coli; 256 µg/mL (≈ 750 µM) in the assay with Shigella dysenteriae; 256 µg/mL (≈ 750 µM) with Staphylococcus aureus [7]; 0.5 µg/mL (≈ 1.47 µM) in the assay with Staphylococcus aureus [8]. Also, the MIC against Micrococcus luteus was 128 µg/mL (≈ 375 µM); against Candida albicans, 4 µg/mL (≈ 11.7 µM); against Saccharomyces cerevisiae it was 8 µg/mL (≈ 23.4 µM); in the assay with Aspergillus flavus [9], 0.5 µg/mL (≈ 1.47 µM); in the assay with Cyberlindnera jadinii, more than 512 µg/mL.

Consider `CCOC(=O)c1cn(CC2CO2)c2c(Cl)cc(Cl)cc2c1=O` (racemic), for which the Ratio in the assay on Aspergillus flavus [12] came to 256. In addition, the MIC is 2 µg/mL (≈ 5.84 µM) in the assay on Salmonella typhi; 0.5 µg/mL (≈ 1.46 µM) with Pseudomonas aeruginosa; 32 µg/mL (≈ 93.5 µM) against Escherichia coli; more than 512 µg/mL against Shigella dysenteriae; 1 µg/mL (≈ 2.92 µM) against Staphylococcus aureus [7]; 2 µg/mL (≈ 5.84 µM) against Staphylococcus aureus [8]. In addition, the MIC was more than 512 µg/mL against Micrococcus luteus; 2 µg/mL (≈ 5.84 µM) against Candida albicans; 8 µg/mL (≈ 23.4 µM) with Saccharomyces cerevisiae; 0.5 µg/mL (≈ 1.46 µM) in the assay with Aspergillus flavus [9]; more than 512 µg/mL against Cyberlindnera jadinii.
